Measured values from patent US7396837B2, “Antitumoral analogs of lamellarins” (Pharma Mar, S.A.U., priority 2002, dated 2008).

How the values were obtained:
Type in all cases: cell-based
[1] = test system: DU-145; experiment: SRB colorimetric cell growth inhibition assay, DU-145; settings: Homo sapiens, DU-145, DU-145; for GI50: GI=growth inhibition, read-out: GI50 DU-145; for CC50: cell killing (cytotoxic effect), read-out: LC50 DU-145; for IC (TGI): total growth inhibition (cytostatic effect), read-out: TGI DU-145
Outline: (§1)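 Cancer cells grown in vitro were continuously treated with compound. Cell mass was then determined by SRB staining and expressed as growth inhibition.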

[2] = test system: A-549; experiment: SRB colorimetric cell growth inhibition assay, A-549; settings: Homo sapiens, A549, A-549; for GI50: GI=growth inhibition, read-out: GI50 A-549; for CC50: cell killing (cytotoxic effect), read-out: LC50 A-549; for IC (TGI): total growth inhibition (cytostatic effect), read-out: TGI A-549
Outline: as §1

[3] = test system: K-562; experiment: SRB colorimetric cell growth inhibition assay, K-562; settings: Homo sapiens, K562, K-562; for GI50: GI=growth inhibition, read-out: GI50 K-562; for CC50: cell killing (cytotoxic effect), read-out: LC50 K-562; for IC (TGI): total growth inhibition (cytostatic effect), read-out: TGI K-562
Outline: as §1

[4] = test system: PANC-1; experiment: SRB colorimetric cell growth inhibition assay, PANC-1; settings: Homo sapiens, PANC-1, PANC-1; for GI50: GI=growth inhibition, read-out: GI50 PANC-1; for CC50: cell killing (cytotoxic effect), read-out: LC50 PANC-1; for IC (TGI): total growth inhibition (cytostatic effect), read-out: TGI PANC-1
Outline: as §1

[5] = test system: LoVo; experiment: SRB colorimetric cell growth inhibition assay, LoVo; settings: Homo sapiens, LoVo; for GI50: GI=growth inhibition, read-out: GI50 LOVO; for CC50: cell killing (cytotoxic effect), read-out: LC50 LOVO; for IC (TGI): total growth inhibition (cytostatic effect), read-out: TGI LOVO
Outline: as §1

[6] = test system: HeLa; experiment: SRB colorimetric cell growth inhibition assay, HeLa; settings: Homo sapiens, HeLa; for GI50: GI=growth inhibition, read-out: GI50 HELA; for CC50: cell killing (cytotoxic effect), read-out: LC50 HELA; for IC (TGI): total growth inhibition (cytostatic effect), read-out: TGI HELA
Outline: as §1

[7] = test system: IGROV; experiment: SRB colorimetric cell growth inhibition assay, IGROV; settings: Homo sapiens, IGROV; for GI50: GI=growth inhibition, read-out: GI50 IGROV; for CC50: cell killing (cytotoxic effect), read-out: LC50 IGROV; for IC (TGI): total growth inhibition (cytostatic effect), read-out: TGI IGROV
Outline: as §1

[8] = test system: HT-29; experiment: SRB colorimetric cell growth inhibition assay, HT-29; settings: Homo sapiens, HT-29, HT-29; for GI50: GI=growth inhibition, read-out: GI50 HT-29; for CC50: cell killing (cytotoxic effect), read-out: LC50 HT-29; for IC (TGI): total growth inhibition (cytostatic effect), read-out: TGI HT-29
Outline: as §1

[9] = test system: SK-BR-3; experiment: SRB colorimetric cell growth inhibition assay, SK-BR-3; settings: Homo sapiens, SK-BR-3, SK-BR-3; for GI50: GI=growth inhibition, read-out: GI50 SK-BR-3; for CC50: cell killing (cytotoxic effect), read-out: LC50 SK-BR-3; for IC (TGI): total growth inhibition (cytostatic effect), read-out: TGI SK-BR-3
Outline: as §1

[10] = test system: LoVo-Dox; experiment: SRB colorimetric cell growth inhibition assay, LoVo-Dox (MDR); settings: Homo sapiens, LOVO-DOX; for GI50: GI=growth inhibition, read-out: GI50 LOVO-DOX; for CC50: cell killing (cytotoxic effect), read-out: LC50 LOVO-DOX; for IC (TGI): total growth inhibition (cytostatic effect), read-out: TGI LOVO-DOX
Outline: as §1

[11] = test system: HeLa-APL; experiment: SRB colorimetric cell growth inhibition assay, HeLa-APL (aplidine resistant); settings: Homo sapiens, HELA-APL; for GI50: GI=growth inhibition, read-out: GI50 HELA-APL; for CC50: cell killing (cytotoxic effect), read-out: LC50 HELA-APL; for IC (TGI): total growth inhibition (cytostatic effect), read-out: TGI HELA-APL
Outline: as §1

[12] = test system: SK-MEL-28; experiment: SRB colorimetric cell growth inhibition assay, SK-MEL-28; settings: Homo sapiens, SK-MEL-28, MEL-28; for GI50: GI=growth inhibition, read-out: GI50 MEL-28; for CC50: cell killing (cytotoxic effect), read-out: LC50 MEL-28; for IC (TGI): total growth inhibition (cytostatic effect), read-out: TGI MEL-28
Outline: as §1

[13] = test system: LNCaP; experiment: SRB colorimetric cell growth inhibition assay, LNCaP; settings: Homo sapiens, LNCaP, LN-caP; for GI50: GI=growth inhibition, read-out: GI50 LN-caP; for CC50: cell killing (cytotoxic effect), read-out: LC50 LN-caP; for IC (TGI): total growth inhibition (cytostatic effect), read-out: TGI LN-caP
Outline: as §1

[14] = test system: IGROV-ET; experiment: SRB colorimetric cell growth inhibition assay, IGROV-ET (ET-743 resistant); settings: Homo sapiens, IGROV-ET; for GI50: GI=growth inhibition, read-out: GI50 IGROV-ET; for CC50: cell killing (cytotoxic effect), read-out: LC50 IGROV-ET; for IC (TGI): total growth inhibition (cytostatic effect), read-out: TGI IGROV-ET
Outline: as §1

## COc1cc2c(cc1O)oc(=O)c1c2c(-c2cccc([N+](=O)[O-])c2)c2c3cc(OC)c(O)cc3ccn21 [Compound 221]
[1]
  GI50: 0.0431 µM
  CC50: 20.1 µM
  IC (TGI): 0.257 µM
[2]
  GI50: 0.0802 µM
  CC50: 20.1 µM
  IC (TGI): 20.1 µM
[3]
  GI50: 0.0883 µM
  CC50: 20.1 µM
  IC (TGI): 20.1 µM
[4]
  GI50: 0.0786 µM
  CC50: 20.1 µM
  IC (TGI): 20.1 µM
[5]
  GI50: 2.41 µM
  CC50: 15.9 µM
  IC (TGI): 6.2 µM
[6]
  GI50: 0.0564 µM
  CC50: 20.1 µM
  IC (TGI): 20.1 µM
[7]
  GI50: 0.0819 µM
  CC50: 20.1 µM
  IC (TGI): 20.1 µM
[8]
  GI50: 20.1 µM
  CC50: 20.1 µM
  IC (TGI): 20.1 µM
[9]
  GI50: 1.53 µM
  CC50: 20.1 µM
  IC (TGI): 12.9 µM
[10]
  GI50: 2.83 µM
  CC50: 20.1 µM
  IC (TGI): 14.2 µM
[11]
  GI50: 0.0796 µM
  CC50: 20.1 µM
  IC (TGI): 20.1 µM
[12]
  GI50: 0.106 µM
  CC50: 20.1 µM
  IC (TGI): 20.1 µM
[13]
  GI50: 0.0722 µM
  CC50: 20.1 µM
  IC (TGI): 5.02 µM
[14]
  GI50: 0.0648 µM
  CC50: 20.1 µM
  IC (TGI): 20.1 µM

## COc1cc(-c2c3c4cc(OC)c(OC(=O)CCc5ccccc5)cc4oc(=O)c3n3ccc4cc(OC(=O)CCc5ccccc5)c(OC)cc4c23)ccc1OC(=O)CCc1ccccc1 [Compound 8]
[1]
  GI50: 0.703 µM
  CC50: 9.43 µM
  IC (TGI): 2.6 µM
[2]
  GI50: 0.744 µM
  CC50: 11.2 µM
  IC (TGI): 6.34 µM
[3]
  GI50: 0.225 µM
  CC50: 7.49 µM
  IC (TGI): 1.57 µM
[4]
  GI50: 0.231 µM
  CC50: 11.2 µM
  IC (TGI): 0.865 µM
[5]
  GI50: 1.48 µM
  CC50: 11.2 µM
  IC (TGI): 4.68 µM
[6]
  GI50: 0.276 µM
  CC50: 7.92 µM
  IC (TGI): 1.41 µM
[7]
  GI50: 0.445 µM
  CC50: 11.2 µM
  IC (TGI): 2.17 µM
[8]
  GI50: 0.377 µM
  CC50: 11.2 µM
  IC (TGI): 11.2 µM
[9]
  GI50: 0.915 µM
  CC50: 9.19 µM
  IC (TGI): 3.04 µM
[10]
  GI50: 8.34 µM
  CC50: 11.2 µM
  IC (TGI): 11.2 µM
[11]
  GI50: 7.3 µM
  CC50: 11.2 µM
  IC (TGI): 11.2 µM
[12]
  GI50: 0.407 µM
  CC50: 11.2 µM
  IC (TGI): 2.2 µM
[13]
  GI50: 0.654 µM
  CC50: 7.21 µM
  IC (TGI): 2.47 µM
[14]
  GI50: 3.35 µM
  CC50: 11.2 µM
  IC (TGI): 11.2 µM
